# Experimental data: patent publication US20230241155A1, “METHODS AND MEANS FOR MODIFYING HEMODYNAMICS IN INFECTIONS” (Biotempt B.V., priority 2020, published 2023)
# Entries after “also recorded” stand apart in the source; their conditions may differ. Like-named read-outs stand apart in the source and are kept apart here. Peptide text beside a SMILES is read from it.
# Legend:
# [1] = Solubility / aggregation screen of AQGV peptide salts; settings: for aggregation in aqueous solution: in relation to peptide-acetate aggregation
# Source text: FIG. 7: Overview of solubility experiments with results in Table 1.
# [2] = Adverse events (AEs) in the EASI-study (phase II, CABG patients); format: in vivo, human
# Experimental: A prospective, randomized, double-blind, placebo-controlled study was performed in which 180 elective patients undergoing on-pump coronary artery bypass grafting were enrolled. Patients were randomized in a 1:1 ratio and received either EA-230, 90 mg/kg/hour, or a placebo. These were infused at the start of the surgical procedure until the end of the use of the cardiopulmonary bypass. The main focus in this first-in-patient study was on safety and tolerability of EA-230. The primary efficacy endpoint was the modulation of the inflammatory response by EA-230. A key secondary endpoint was the effect of EA-230 on renal function.
# The present study was a single-center, prospective, double-blind, placebo-controlled, randomized, single-dose phase II study. It has an adaptive design to evaluate the safety and immunomodulatory effects of EA-230 in patients undergoing for coronary artery bypass grafting (CABG). 180 eligible patients were included and were randomized to receive either active or placebo treatment in a 1:1 ratio. This was a first-in-patient safety and tolerability study, of which the primary efficacy objective was to assess the immunomodulatory effects of EA-230. The key-secondary efficacy endpoint was the effect of EA-230 on renal function. This study was described in accordance with the Standard Protocol Items: Recommendations for Interventional Trial (SPIRIT) guidelines, and registered at clinicaltrials.gov under number NCT03145220.
# Intravenous infusion of EA-230, 90 mg/kg/hour, or placebo, was initiated at the moment of first surgical incision using an automated infusion pump. Infusion rate was set at 250 mL/hour, and infusion was continued until cessation of the CPB, or after 4 hours of continuous infusion, whichever comes first.
# All AEs were judged by the investigators with regard to severity (“mild, moderate, or severe”) according to Common Terminology Criteria for Adverse Events guidelines 4.030 and their perceived relation to the study drug (“definitely, probably, possibly, or unrelated/unlikely to be related”). SAEs or SUSARs include death, life-threatening disease, persistent and/or significant disability and/or incapacity, and hospitalization and/or prolongation of inpatient hospitalization.
compound,measurement,setting,value
Nc1ncnc2c1ncn2[C@@H]1O[C@H](COP(=O)(O)O)[C@@H](O)[C@H]1O [adenosine-monophosphate],solubility (aggregation point),[1],did not provide solubility
same,aggregation in aqueous solution,[1],aggravated aggregation
AQGV-citrate,behaviour of highly concentrated solution,[1],does not crystallize or aggregate but tend to form a highly viscous solution
same,solubility (aggregation point),[1],Higher solubility
same,aggregation in aqueous solution,[1],(strongly) reduced aggregation
O=C(O)/C=C\C(=O)O [maleic acid],aggregation in aqueous solution,[1],aggravated aggregation
same,solubility (aggregation point),"[1]; solubility in 0.9% NaCl, compared to AQGV-Ac",lower solubility
Nc1ncnc2c1ncn2[C@@H]1O[C@H](CO)[C@@H](O)[C@H]1O [adenosine],solubility (aggregation point),[1],did not provide solubility
same,aggregation in aqueous solution,[1],aggravated aggregation
"CC(C)[C@H](NC(=O)CNC(=O)[C@H](CCC(N)=O)NC(=O)[C@H](C)N)C(=O)O [EA-230, AQGV] (H-AQGV-OH)","AE of mild intensity, % of patients",[2]; EA-230 group N = 91,(83.5) %
same,"AE of mild intensity, e = Number of events",[2]; EA-230 group N = 91,188
same,"AE of mild intensity, n = Number of patients experiencing the event",[2]; EA-230 group N = 91,76
same,"AE of moderate intensity, % of patients",[2]; EA-230 group N = 91,(24.2) %
same,"AE of moderate intensity, e = Number of events",[2]; EA-230 group N = 91,23
same,"AE of moderate intensity, n = Number of patients experiencing the event",[2]; EA-230 group N = 91,22
same,"AE of severe intensity, % of patients",[2]; EA-230 group N = 91,(5.5) %
same,"AE of severe intensity, e = Number of events",[2]; EA-230 group N = 91,6
same,"AE of severe intensity, n = Number of patients experiencing the event",[2]; EA-230 group N = 91,5
same,"Anemia, % of patients",[2]; EA-230 group N = 91,(5.5) %
same,"Anemia, e = Number of events",[2]; EA-230 group N = 91,5
same,"Anemia, n = Number of patients experiencing the event",[2]; EA-230 group N = 91,5
same,"Any AE, % of patients",[2]; EA-230 group N = 91,(85.7) %
same,"Any AE, n = Number of patients experiencing the event",[2]; EA-230 group N = 91,78
same,"Any SAE, % of patients",[2]; EA-230 group N = 91,(13.2) %
same,"Any SAE, e = Number of events",[2]; EA-230 group N = 91,23
same,"Any SAE, n = Number of patients experiencing the event",[2]; EA-230 group N = 91,12
same,"Any SUSAR, % of patients",[2]; EA-230 group N = 91,(0) %
same,"Any SUSAR, e = Number of events",[2]; EA-230 group N = 91,0
same,"Any SUSAR, n = Number of patients experiencing the event",[2]; EA-230 group N = 91,0
same,"Blood and lymphatic system disorders Overall, % of patients",[2]; EA-230 group N = 91,(5.5) %
same,"Blood and lymphatic system disorders Overall, e = Number of events",[2]; EA-230 group N = 91,6
same,"Blood and lymphatic system disorders Overall, n = Number of patients experiencing the event",[2]; EA-230 group N = 91,5
same,"Delirium, % of patients",[2]; EA-230 group N = 91,(5.5) %
same,"Delirium, e = Number of events",[2]; EA-230 group N = 91,5
same,"Delirium, n = Number of patients experiencing the event",[2]; EA-230 group N = 91,5
same,"Fluid retention, % of patients",[2]; EA-230 group N = 91,(2.2) %
same,"Fluid retention, e = Number of events",[2]; EA-230 group N = 91,2
same,"Fluid retention, n = Number of patients experiencing the event",[2]; EA-230 group N = 91,2
same,"Gastrointestinal disorders Overall, % of patients",[2]; EA-230 group N = 91,(23.1) %
same,"Gastrointestinal disorders Overall, e = Number of events",[2]; EA-230 group N = 91,27
same,"Gastrointestinal disorders Overall, n = Number of patients experiencing the event",[2]; EA-230 group N = 91,21
same,"Hemorrhagic diathesis, % of patients",[2]; EA-230 group N = 91,(1.1) %
same,"Hemorrhagic diathesis, e = Number of events",[2]; EA-230 group N = 91,1
same,"Hemorrhagic diathesis, n = Number of patients experiencing the event",[2]; EA-230 group N = 91,1
same,"Infections and infestations Overall, % of patients",[2]; EA-230 group N = 91,(14.3) %
same,"Infections and infestations Overall, e = Number of events",[2]; EA-230 group N = 91,15
same,"Infections and infestations Overall, n = Number of patients experiencing the event",[2]; EA-230 group N = 91,13
same,"Metabolism and nutrition disorders Overall, % of patients",[2]; EA-230 group N = 91,(11) %
same,"Metabolism and nutrition disorders Overall, e = Number of events",[2]; EA-230 group N = 91,10
same,"Metabolism and nutrition disorders Overall, n = Number of patients experiencing the event",[2]; EA-230 group N = 91,10
same,"Nausea, % of patients",[2]; EA-230 group N = 91,(16.5) %
same,"Nausea, e = Number of events",[2]; EA-230 group N = 91,15
same,"Nausea, n = Number of patients experiencing the event",[2]; EA-230 group N = 91,15
same,"Psychiatric disorders Overall, % of patients",[2]; EA-230 group N = 91,(9.9) %
same,"Psychiatric disorders Overall, e = Number of events",[2]; EA-230 group N = 91,9
same,"Psychiatric disorders Overall, n = Number of patients experiencing the event",[2]; EA-230 group N = 91,9
same,"Renal and urinary disorders Overall, % of patients",[2]; EA-230 group N = 91,(4.4) %
same,"Renal and urinary disorders Overall, e = Number of events",[2]; EA-230 group N = 91,4
same,"Renal and urinary disorders Overall, n = Number of patients experiencing the event",[2]; EA-230 group N = 91,4
same,safety and tolerability,[2]; clinical trials / throughout surgery,safe and well tolerated; also recorded: found to be safe
